Measured values from the NIST ThermoML archive (doi:10.1016/j.jct.2019.01.012).
± gives the expanded uncertainty stated by the source.

Assay: molar enthalpy of vaporization or sublimation
Settings: 298.15 K; Liquid; Static calorimetry

| molar enthalpy [kcal/mol] | SMILES |
| --- | --- |
| 12.5 ± 0.335 | CC1=CC(=O)CC1 [3-methyl-2-cyclopenten-1-one] |
| 12.5 ± 0.359 | O=C1C=CCC1 [2-cyclopenten-1-one] |
